In the test the target is T1, sucrase (Saccharomyces cerevisiae, UniProt P00724).
T1 construct: S. cervisiae (Taiken 396 strain) which is a general yeast having sucrase; endogenous in cells; host or cells: Saccharomyces cerevisiae Taiken 396 strain (live yeast in sugarcane-pressed juice)
T1 sequence (P00724 20-532): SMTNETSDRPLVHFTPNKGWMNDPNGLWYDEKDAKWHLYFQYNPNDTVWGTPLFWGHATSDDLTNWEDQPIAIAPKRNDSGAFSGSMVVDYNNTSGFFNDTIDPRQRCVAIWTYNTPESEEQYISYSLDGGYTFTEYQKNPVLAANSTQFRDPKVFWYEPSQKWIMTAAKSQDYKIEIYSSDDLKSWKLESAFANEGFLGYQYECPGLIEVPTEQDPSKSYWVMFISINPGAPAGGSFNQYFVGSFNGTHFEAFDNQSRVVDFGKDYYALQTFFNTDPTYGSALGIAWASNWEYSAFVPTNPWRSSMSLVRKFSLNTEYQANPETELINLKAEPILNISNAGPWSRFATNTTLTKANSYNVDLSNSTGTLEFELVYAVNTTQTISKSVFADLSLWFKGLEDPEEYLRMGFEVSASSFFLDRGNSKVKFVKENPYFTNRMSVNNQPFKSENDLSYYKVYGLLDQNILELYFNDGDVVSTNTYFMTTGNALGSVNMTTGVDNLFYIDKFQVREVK
Nature of the test: Fermentation test on sugarcane-pressed juice using sucrase inhibitor. The test is classed as cell-based, S. cervisiae (Taiken 396 strain). As to conditions: 60 mM inhibitor. Here is the method: S. cervisiae ([…] 396 strain) which is a general yeast having sucrase was planted in a sugarcane-pressed juice. Methyl-α-D-glucopyranoside serving as a sucrase inhibitor was added thereto at a concentration 60 mM. A fermentation test was conducted to examine the changes in the concentrations of sucrose, invert sugars, and ethanol over time. The fungal strain used for fermentation had been pre-precultured by shaking in 10 mL of a YM medium at 30° C. for 24 hours, and then further precultured by shaking in 500 mL of a YPD medium at 30° C. for 12 hours. The yeast was collected from the precultured medium by centrifugation. 100 mL of the pressed juice (in the pressed juice, the sucrose concentration was 10.0%, and the invert sugar concentration was 3.0%) and 60 mM of methyl-α-D-glucopyranoside were placed in a 300-mL Erlenmeyer flask with a fermentation lock. The yeast collected from the precultured medium by centrifugation was added into the flask for fermentation. The fermentation was carried out by shaking at 30° C. at 120 rpm.

Setting [1] is: 6 hours after the fermentation was started.

Regarding `CO[C@H]1O[C@H](CO)[C@@H](O)[C@H](O)[C@H]1O` [methyl-α-D-glucopyranoside], under setting [1], the “invert sugars converted into ethanol” value is “all the invert sugars were converted into ethanol” and the sucrose remaining result is “approximately half of the sucrose remained”. In addition, the “sucrose ratio of the fermented liquid” value (8 hours after the fermentation was started) is 94.0%. The sucrose decomposition speed result (sugarcane-pressed juice (sucrose 10.0%, invert sugar 3.0%), 30° C., compared with no inhibitor) is given as “made slow”.

Source of the values: patent US8647845B2, “Method for producing sugar” (Asahi Group Holdings, Ltd., priority 2008, dated 2014).
